Patent publication US10920190B2, “Folding biological tissue via programmed cellular contractility” (The Regents of the University of California, priority 2016, dated 2021)

Key:
explanted guts = assay: Cell clustering and collagen 1 remodeling in explanted embryonic guts; settings: explanted guts of embryonic mice treated with inhibitor; results not shown
Protocol: (§1) Blebbistatin (Abcam ab120491) and staurosporine (Sigma-Aldrich S5921) were added to cell media at the indicated concentrations by serial dilution from 10 mM DMSO stocks.
(§2) FIG. 21. (A). Gut villi in embryonic mice form in concert with condensation of PDGFR-positive mesenchymal fibroblasts at sites of villus curvature. These clusters are associated with local alignment and compaction of collagen 1 fibrils against the E-cadherin-positive epithelium. […] B) Feather buds in embryonic chickens form from a flat epithelium, and can be visualized with non-specific ethidium bromide staining Chick skin explants at Hamburger-Hamilton (HH) stage 32 form feather buds in culture, but feather bud spacing and height are disrupted in the presence of blebbistatin.

Chick skin explants = assay: Feather bud formation in chick skin explants in culture; parameters: species or system chickens; settings: chick skin explants at Hamburger-Hamilton (HH) stage 32 in culture
Protocol: as §1, §2

[1] = tested on: mesenchymal-like carcinoma cells; assay: Unfolding of pre-folded isotropic reconstituted tissues after ablating actuator cells; assay type: cell-based
Protocol: as §1
Curvatures reported for cap reconstituted tissues were generated by radially reslicing and thresholding in ImageJ after manually picking the center of reconstituted tissues to serve as origin points. Radial slices were read into MATLAB and least-squares fitted to circles. Anisotropic curvatures were similarly generated for the indicated cutting planes and folds.

[2] = tested on: mesenchymal-like carcinoma cells; assay: Efficacy of staurosporine on cells cultured on standard tissue culture plastic (cell viability); assay type: cell-based; settings: 20 μM, n=6
Protocol: as §1

Row | SMILES | cell clustering and collagen 1 remodeling (explanted guts) | feather bud spacing and height (Chick skin explants) | pre-folded isotropic tissue curvatures (maximum curvature relative to average maximum curvature prior to addition) ([1]; 20 μM, n=4 reconstituted tissues per condition) | unfolding of pre-folded tissues ([1]; upon inducing apoptosis of condensing cells using staurosporine (FIG. 13)) | cell death (cell viability) [2]
1 | Cc1ccc2c(c1)C(=O)C1(O)CCN(c3ccccc3)C1=N2 (centres unmarked) [blebbistatin] | does not occur | disrupted | – | – | –
2 | CN[C@@H]1C[C@H]2O[C@@](C)([C@@H]1OC)n1c3ccccc3c3c4c(c5c6ccccc6n2c5c31)C(=O)NC4 [staurosporine] | – | – | modest reductions | less than 40% | nearly complete cell death
